These results are taken from patent US9587005B2 (priority 2010, dated 2017).

*1 amine or outer side, *2 acyl side, *3 side chain or, on linkers, in order; H or OH if unused. Where a SMILES comes first, the peptide text is derived from it. Side-chain parts run from the residue outwards. [ ]: non-standard residue; d: D form. The star is where a group is joined. γGlu = O=C(O)[C@H](CCC(=O)[*:2])N[*:1]; Palmitoyl = CCCCCCCCCCCCCCCC(=O)*; Aib = CC(C)(N)C(=O)O

Assay type in all cases: cell-based
One experiment addresses T1, GLP-1 receptor (Homo sapiens, UniProt P43220).
T1 construct: expressed in transfected cells; host or cells: HEK293
Nature of the experiment: cAMP induction, firefly luciferase reporter assay in HEK293 cells co-transfected with GLP-1 receptor. Conditions: EC50 (nM) at GLP-1 Receptor. An excerpt: (§1) This example describes an exemplary method of testing the biological activity of the peptides of the present disclosures, which method involves assaying cAMP synthesis.

For a further experiment, the target named is T2, glucagon receptor (Homo sapiens, UniProt P47871).
T2 construct: expressed in transfected cells; host or cells: HEK293
T2 sequence (P47871 26-477): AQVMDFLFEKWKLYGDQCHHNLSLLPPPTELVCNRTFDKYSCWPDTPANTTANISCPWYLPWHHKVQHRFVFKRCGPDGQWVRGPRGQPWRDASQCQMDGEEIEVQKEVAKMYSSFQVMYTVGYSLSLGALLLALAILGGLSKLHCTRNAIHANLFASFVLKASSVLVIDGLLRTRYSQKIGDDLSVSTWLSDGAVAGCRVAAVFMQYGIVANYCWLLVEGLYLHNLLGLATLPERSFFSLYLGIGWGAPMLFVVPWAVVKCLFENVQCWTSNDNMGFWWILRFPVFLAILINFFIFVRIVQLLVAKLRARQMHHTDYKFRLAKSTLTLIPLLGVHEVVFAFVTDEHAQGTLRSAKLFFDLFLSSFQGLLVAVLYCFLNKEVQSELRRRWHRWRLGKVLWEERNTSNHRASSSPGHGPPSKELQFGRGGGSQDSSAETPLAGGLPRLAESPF
Briefly: cAMP induction, firefly luciferase reporter assay in HEK293 cells co-transfected with glucagon receptor. Conditions: EC50 (nM) at Glucagon Receptor, Table 4, Example 9; composite of multiple different activity assays.
Excerpt: as §1

In the next experiment the target is T3, GIP receptor (Homo sapiens, UniProt P48546).
T3 sequence (P48546 22-466): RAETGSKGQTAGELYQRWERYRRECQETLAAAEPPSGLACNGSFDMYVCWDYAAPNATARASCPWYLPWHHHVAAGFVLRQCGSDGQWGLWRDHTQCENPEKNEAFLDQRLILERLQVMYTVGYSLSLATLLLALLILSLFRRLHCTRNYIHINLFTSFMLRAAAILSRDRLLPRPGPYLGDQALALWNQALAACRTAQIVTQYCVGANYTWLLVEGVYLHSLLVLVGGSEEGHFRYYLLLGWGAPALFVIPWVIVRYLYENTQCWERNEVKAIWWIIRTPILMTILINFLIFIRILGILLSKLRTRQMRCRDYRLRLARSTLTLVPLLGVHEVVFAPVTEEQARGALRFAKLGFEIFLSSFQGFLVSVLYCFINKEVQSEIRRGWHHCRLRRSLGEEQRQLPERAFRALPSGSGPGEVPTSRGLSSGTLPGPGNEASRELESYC
Briefly: cAMP induction, firefly luciferase reporter assay in HEK293 cells co-transfected with GIP receptor. Conditions: EC50 (nM) at GIP Receptor.

Where [1] appears, read: Table 4, Example 9, composite of multiple different activity assays.

T1 sequence (P43220 24-463): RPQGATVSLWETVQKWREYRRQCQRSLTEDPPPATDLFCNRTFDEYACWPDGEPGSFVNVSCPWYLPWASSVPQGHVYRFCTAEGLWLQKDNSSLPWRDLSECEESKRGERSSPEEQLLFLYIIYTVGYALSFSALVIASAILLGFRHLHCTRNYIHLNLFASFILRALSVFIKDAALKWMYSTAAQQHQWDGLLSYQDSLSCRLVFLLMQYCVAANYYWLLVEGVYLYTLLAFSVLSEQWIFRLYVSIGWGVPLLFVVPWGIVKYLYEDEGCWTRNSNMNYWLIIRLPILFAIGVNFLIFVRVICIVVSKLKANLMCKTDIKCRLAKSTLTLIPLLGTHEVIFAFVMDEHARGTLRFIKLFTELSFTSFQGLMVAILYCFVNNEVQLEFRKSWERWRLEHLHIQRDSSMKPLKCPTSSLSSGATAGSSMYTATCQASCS

Take `CCCCCCCCCCCCCCCC(=O)N[C@@H](CCC(=O)N[C@@H](CCC(=O)NCCCC[C@H](NC(=O)[C@H](CC(=O)O)NC(=O)[C@H](CO)NC(=O)[C@@H](NC(=O)[C@H](Cc1ccccc1)NC(=O)[C@@H](NC(=O)CNC(=O)[C@H](CCC(N)=O)NC(=O)C(C)(C)NC(=O)[C@@H](N)Cc1c[nH]cn1)[C@@H](C)O)[C@@H](C)O)C(=O)N[C@@H](CO)C(=O)N[C@@H](CCCCN)C(=O)N[C@@H](Cc1ccc(O)cc1)C(=O)N[C@@H](CC(C)C)C(=O)N[C@@H](CC(=O)O)C(=O)NC(C)(C)C(=O)N[C@@H](CCCNC(=N)N)C(=O)N[C@@H](C)C(=O)N[C@@H](C)C(=O)N[C@@H](CCC(N)=O)C(=O)N[C@@H](CC(=O)O)C(=O)N[C@@H](Cc1ccccc1)C(=O)N[C@H](C(=O)N[C@@H](CCC(N)=O)C(=O)N[C@@H](Cc1c[nH]c2ccccc12)C(=O)N[C@@H](CC(C)C)C(=O)N[C@@H](CCSC)C(=O)N[C@@H](CC(=O)O)C(=O)NCC(=O)NCC(=O)N1CCC[C@H]1C(=O)N[C@@H](CO)C(=O)N[C@@H](CO)C(=O)NCC(=O)N[C@@H](C)C(=O)N1CCC[C@H]1C(=O)N1CCC[C@H]1C(=O)N1CCC[C@H]1C(=O)N[C@@H](CO)C(N)=O)C(C)C)C(=O)O)C(=O)O` [compound 33] (H-H[Aib]QGTFTSDK([γGlu-γGlu-Palmitoyl])SKYLD[Aib]RAAQDFVQWLMDGGPSSGAPPPS-NH2): the EC50 at GLP-1 receptor (setting [1]) was 0.004 nM; at glucagon receptor, 0.005 nM.

Turning to `CCCCCCCCCCCCCCCC(=O)N[C@@H](CCC(=O)NCCCC[C@H](NC(=O)[C@H](CC(=O)O)NC(=O)[C@H](CO)NC(=O)[C@@H](NC(=O)[C@H](Cc1ccccc1)NC(=O)[C@@H](NC(=O)CNC(=O)[C@H](CCC(N)=O)NC(=O)[C@@H](CO)NC(=O)[C@@H](N)Cc1c[nH]cn1)[C@@H](C)O)[C@@H](C)O)C(=O)N[C@@H](CO)C(=O)N[C@@H](CCCCN)C(=O)N[C@@H](Cc1ccc(O)cc1)C(=O)N[C@@H](CC(C)C)C(=O)N[C@@H](CC(=O)O)C(=O)N[C@@H](CCC(=O)O)C(=O)N[C@@H](CCCNC(=N)N)C(=O)N[C@@H](C)C(=O)N[C@@H](C)C(=O)N[C@@H](CCC(N)=O)C(=O)N[C@@H](CC(=O)O)C(=O)N[C@@H](Cc1ccccc1)C(=O)N[C@H](C(=O)N[C@@H](CCC(N)=O)C(=O)N[C@@H](Cc1c[nH]c2ccccc12)C(=O)N[C@@H](CC(C)C)C(=O)N[C@@H](CC(C)C)C(=O)N[C@@H](CC(=O)O)C(=O)NCC(=O)NCC(=O)N1CCC[C@H]1C(=O)N[C@@H](CO)C(=O)N[C@@H](CO)C(=O)NCC(=O)N[C@@H](C)C(=O)N1CCC[C@H]1C(=O)N1CCC[C@H]1C(=O)N1CCC[C@H]1C(=O)N[C@@H](CO)C(N)=O)C(C)C)C(=O)O` [compound 27], the 50% effective concentration (EC50) at GLP-1 receptor (setting [1]) is 0.002 nM; on glucagon receptor, 0.003 nM.

For the molecule `CCCCCCCCCCCCCCCC(=O)N[C@@H](CCC(=O)NCCCC[C@H](NC(=O)[C@H](CC(=O)O)NC(=O)[C@H](CO)NC(=O)[C@@H](NC(=O)[C@H](Cc1ccccc1)NC(=O)[C@@H](NC(=O)CNC(=O)[C@H](CCC(N)=O)NC(=O)[C@@H](CO)NC(=O)[C@@H](N)Cc1c[nH]cn1)[C@@H](C)O)[C@@H](C)O)C(=O)N[C@@H](CO)C(=O)N[C@@H](CCCCN)C(=O)N[C@@H](Cc1ccc(O)cc1)C(=O)N[C@@H](CC(C)C)C(=O)N[C@@H](CC(=O)O)C(=O)N[C@@H](CCC(=O)O)C(=O)N[C@@H](CCCNC(=N)N)C(=O)N[C@@H](CCCNC(=N)N)C(=O)N[C@@H](C)C(=O)NC(C)(C)C(=O)N[C@@H](CCC(=O)O)C(=O)N[C@@H](Cc1ccccc1)C(=O)N[C@H](C(=O)N[C@@H](CCC(N)=O)C(=O)N[C@@H](Cc1c[nH]c2ccccc12)C(=O)N[C@@H](CC(C)C)C(=O)N[C@@H](CC(C)C)C(=O)N[C@@H](CC(=O)O)C(=O)N[C@H](C(N)=O)[C@@H](C)O)C(C)C)C(=O)O` [compound 30] (H-H[dS]QGTFTSDK([γGlu-Palmitoyl])SKYLDERRA[Aib]EFVQWLLDT-NH2; N-terminus assumed), the EC50 at GLP-1 receptor (setting [1]) was 0.0031 nM; at glucagon receptor, 0.008 nM.

Take `CCCCCCCCCCCCCCCCC(CC(=O)NCCCC[C@H](NC(=O)[C@H](CO)NC(=O)[C@@H]1CCCN1C(=O)[C@@H]1CCCN1C(=O)[C@@H]1CCCN1C(=O)[C@H](C)NC(=O)CNC(=O)[C@H](CO)NC(=O)[C@H](CO)NC(=O)[C@@H]1CCCN1C(=O)CNC(=O)CNC(=O)[C@H](C)NC(=O)[C@H](CC(C)C)NC(=O)[C@H](CC(C)C)NC(=O)[C@H](Cc1c[nH]c2ccccc12)NC(=O)[C@H](CC(N)=O)NC(=O)[C@@H](NC(=O)[C@H](Cc1ccccc1)NC(=O)[C@H](CCC(=O)O)NC(=O)C(C)(C)NC(=O)[C@H](C)NC(=O)[C@H](C)NC(=O)[C@H](CCC(N)=O)NC(=O)[C@H](CCCCN)NC(=O)[C@H](CC(=O)O)NC(=O)[C@H](CC(C)C)NC(=O)[C@H](Cc1ccc(O)cc1)NC(=O)[C@@H](NC(=O)[C@H](CO)NC(=O)[C@H](Cc1ccc(O)cc1)NC(=O)[C@H](CC(=O)O)NC(=O)[C@H](CO)NC(=O)[C@@H](NC(=O)[C@H](Cc1ccccc1)NC(=O)[C@@H](NC(=O)CNC(=O)[C@H](CCC(=O)O)NC(=O)C(C)(C)NC(=O)[C@@H](N)Cc1ccc(O)cc1)[C@@H](C)O)[C@@H](C)O)[C@@H](C)CC)C(C)C)C(=O)NCC(N)=O)C(=O)O` (some centres unmarked) [SEQ ID NO: 140]: the EC50 amounted to 0.001 nM at GLP-1 receptor (Table 9, Example 15) and 0.001 nM at GIP receptor (Table 9, Example 15).

Regarding `CC[C@H](C)[C@H](NC(=O)[C@H](CO)NC(=O)[C@H](Cc1ccc(O)cc1)NC(=O)[C@H](CC(=O)O)NC(=O)[C@H](CO)NC(=O)[C@@H](NC(=O)[C@H](Cc1ccccc1)NC(=O)[C@@H](NC(=O)CNC(=O)[C@H](CCC(N)=O)NC(=O)[C@@H](CO)NC(=O)[C@@H](N)Cc1c[nH]cn1)[C@@H](C)O)[C@@H](C)O)C(=O)N[C@@H](Cc1ccc(O)cc1)C(=O)N[C@@H](CC(C)C)C(=O)N[C@@H](CC(=O)O)C(=O)N[C@@H](CCCCN)C(=O)N[C@@H](CCC(N)=O)C(=O)N[C@@H](C)C(=O)N[C@@H](C)C(=O)NC(C)(C)C(=O)N[C@@H](CCC(=O)O)C(=O)N[C@@H](Cc1ccccc1)C(=O)N[C@H](C(=O)N[C@@H](CC(N)=O)C(=O)N[C@@H](Cc1c[nH]c2ccccc12)C(=O)N[C@@H](CC(C)C)C(=O)N[C@@H](CC(C)C)C(=O)N[C@@H](C)C(=O)NCC(=O)NCC(=O)N1CCC[C@H]1C(=O)N[C@@H](CO)C(=O)N[C@@H](CO)C(=O)NCC(=O)N[C@@H](C)C(=O)N1CCC[C@H]1C(=O)N1CCC[C@H]1C(=O)N1CCC[C@H]1C(=O)N[C@@H](CO)C(=O)N[C@@H](CS)C(N)=O)C(C)C` [compound 48] (H-H[dS]QGTFTSDYSIYLDKQAA[Aib]EFVNWLLAGGPSSGAPPPSC-NH2; N-terminus assumed), the EC50 came out at 0.01 nM on GLP-1 receptor (Table 6, Example 12) and 0.433 nM at GIP receptor (Table 6, Example 12).

In the case of `CCCCCCCCCCCCCCCC(=O)NCCCC[C@H](NC(=O)[C@H](CO)NC(=O)[C@@H]1CCCN1C(=O)[C@@H]1CCCN1C(=O)[C@@H]1CCCN1C(=O)[C@H](C)NC(=O)CNC(=O)[C@H](CO)NC(=O)[C@H](CO)NC(=O)[C@@H]1CCCN1C(=O)CNC(=O)CNC(=O)[C@H](C)NC(=O)[C@H](CC(C)C)NC(=O)[C@H](CC(C)C)NC(=O)[C@H](Cc1c[nH]c2ccccc12)NC(=O)[C@H](CC(N)=O)NC(=O)[C@@H](NC(=O)[C@H](Cc1ccccc1)NC(=O)[C@H](CCC(=O)O)NC(=O)C(C)(C)NC(=O)[C@H](C)NC(=O)[C@H](C)NC(=O)[C@H](CCC(N)=O)NC(=O)[C@H](CCCCN)NC(=O)[C@H](CC(=O)O)NC(=O)[C@H](CC(C)C)NC(=O)[C@H](Cc1ccc(O)cc1)NC(=O)[C@@H](NC(=O)[C@H](CO)NC(=O)[C@H](Cc1ccc(O)cc1)NC(=O)[C@H](CC(=O)O)NC(=O)[C@H](CO)NC(=O)[C@@H](NC(=O)[C@H](Cc1ccccc1)NC(=O)[C@@H](NC(=O)CNC(=O)[C@H](CCC(=O)O)NC(=O)C(C)(C)NC(=O)[C@@H](N)Cc1ccc(O)cc1)[C@@H](C)O)[C@@H](C)O)[C@@H](C)CC)C(C)C)C(=O)NCC(N)=O` [SEQ ID NO: 139], the EC50 is 0.005 nM on GLP-1 receptor (Table 9, Example 15) and 0.001 nM at GIP receptor (Table 9, Example 15).

Regarding `CCCCCCCCCCCCCCCC(=O)N[C@@H](CCC(=O)NCCCC[C@H](NC(=O)[C@H](CC(=O)O)NC(=O)[C@H](CO)NC(=O)[C@@H](NC(=O)[C@H](Cc1ccccc1)NC(=O)[C@@H](NC(=O)CNC(=O)[C@H](CCC(=O)O)NC(=O)C(C)(C)NC(=O)[C@@H](N)Cc1c[nH]cn1)[C@@H](C)O)[C@@H](C)O)C(=O)N[C@@H](CO)C(=O)N[C@@H](CCCCN)C(=O)N[C@@H](Cc1ccc(O)cc1)C(=O)N[C@@H](CC(C)C)C(=O)N[C@@H](CC(=O)O)C(=O)N[C@@H](CCC(=O)O)C(=O)N[C@@H](CCCNC(=N)N)C(=O)N[C@@H](CCCNC(=N)N)C(=O)N[C@@H](C)C(=O)NC(C)(C)C(=O)N[C@@H](CCC(=O)O)C(=O)N[C@@H](Cc1ccccc1)C(=O)N[C@H](C(=O)N[C@@H](CCC(N)=O)C(=O)N[C@@H](Cc1c[nH]c2ccccc12)C(=O)N[C@@H](CC(C)C)C(=O)N[C@@H](CC(C)C)C(=O)N[C@@H](CC(=O)O)C(=O)N[C@H](C(N)=O)[C@@H](C)O)C(C)C)C(=O)O` [compound 40] (H-H[Aib]EGTFTSDK([γGlu-Palmitoyl])SKYLDERRA[Aib]EFVQWLLDT-NH2; N-terminus assumed), the EC50 was 0.006 nM at GLP-1 receptor (setting [1]) and 0.024 nM at GIP receptor (setting [1]).
